Test results reported in US12421217B2, “Pyrazine derivative or salt thereof, and use of same” (FUJIFILM Corporation, priority 2019, dated 2025).

Columns and labels:
[1] = tested on: human myeloid leukemia cell line HL60; experiment: Cell growth test (Cell Titer Glo); format: cell-based; conditions: HL-60, 72 h, HL60 cells, 3 days, read-out: Cell growth inhibitory effect (GI50)
Experimental: The cell growth test was carried out using the human myeloid leukemia cell line HL60 (available from ATCC, CRL-240). As a culture medium of HL60 cells, RPMI 1640 (available from FUJIFILM Wako Pure Chemical Corporation, 189-02025) supplemented with 10% fetal bovine serum (available from Thermo Fisher Scientific, Inc., 10437-028), and 1% penicillin-streptomycin (10,000 U/mL, available from Thermo Fisher Scientific, Inc., 15140-122) was used. HL60 cells were seeded on a 384-well plate (available from Corning Inc., 4588) at a cell density of 1×10^3 cells/20 μL/well. After culturing overnight, 5 μL of the test compound having a predetermined concentration was added, and 3 days later, 25 μL of Cell Titer Glo (registered trademark) Luminescent Cell Viability Assay (available from Promega Corporation, G7573) was added, and then the amount of luminescence was measured using an EnVision plate reader (available from PerkinElmer, Inc.). Since the amount of luminescence is proportional to the intracellular concentration of adenosine triphosphate (ATP), the amount of luminescence was used as an indicator of the number of viable cells. The growth inhibitory concentration for each test compound concentration was calculated by the following expression.
(§1) The growth inhibition rate at each test compound concentration was determined, and the 50% growth inhibitory concentration [GI50 (nmol/L)] was calculated using XLfit. Growth inhibition rate (%)=(amount of luminescence in test compound-added well)/(amount of luminescence in DMSO-added well)×100
The abbreviations in the table have the following meanings. • A: GI50 value<100 nmol/L • B: 100 nmol/L≤GI50 value<1,000 nmol/L • C: 1,000 nmol/L≤GI50 value

[2] = biological target: T1, recombinant human DHODH (Homo sapiens, UniProt Q02127); experiment: Enzyme reaction inhibition test (DHODH enzyme assay, DCIP quenching); format: biochemical; conditions: DCIP absorbance 600 nm, 50 minutes, read-out: Enzyme reaction inhibitory effect (IC50)
T1 construct: DHODH, 31-395 aa, Human, His tag, E. coli, ATGP1615; His tag; purchased ATGen Co. Ltd. ATGP1615; host or cells: E. coli
Experimental: The DHODH enzyme assay was carried out with reference to “Benjamin Bader, Wolfgang Knecht, Markus Fries, and Monika Loffler. Expression, Purification, and Characterization of Histidine-Tagged Rat and Human Flavoenzyme Dihydroorotate Dehydrogenase. Protein Expression and Purification, 1998, 13, 414-422.”
The DHODH activity was evaluated using an enzyme assay system that is coupled with an assay in which a blue coloring agent 2,6-dichlorophenol indophenol (DCIP, available from MP Biomedicals, LLC, MP150118) is quenched. Purified recombinant human DHODH (DHODH, 31-395 aa, Human, His tag, E. coli, ATGP1615) was purchased from ATGen Co. Ltd. The enzyme assay was carried out in a 384-well plate using a buffer solution containing 100 mmol/L Hepes (available from Dojindo Laboratories, 342-01375), 400 mmol/L NaCl (available from FUJIFILM Wako Pure Chemical Corporation, 191-01665), 10% Glycerol (available from FUJIFILM Wako Pure Chemical Corporation, 075-00616), 0.05% Triton X-100 (available from Sigma-Aldrich Co., LLC, T8787-100ML), 0.2 mmol/L Ubiquinone-10 (available from FUJIFILM Wako Pure Chemical Corporation, 216-00761), 0.1 mmol/L DHO (L-dihydroorotic acid, available from Sigma-Aldrich Co., LLC, D7128), 0.5% DMSO (dimethylsulfoxide, available from FUJIFILM Wako Pure Chemical Corporation, 047-29353), 0.175 μg/mL DHODH, and 0.12 mmol/L DCIP and having a pH adjusted to 8.0 by adding 5 mol/L potassium hydroxide (available from FUJIFILM Wako Pure Chemical Corporation, 168-21815). A test compound with a predetermined concentration was added using Biomek NX (available from Beckman Coulter Inc.), and the enzymatic reaction was started by adding the substrate. The enzyme activity was assessed by measuring the decrease in DCIP absorbance (600 nm) for 50 minutes using an EnVision plate-reading spectrophotometer (available from PerkinElmer, Inc.).
as §1, with “enzyme reaction” for “growth”, “enzyme reaction inhibition” for “growth inhibitory”, “[IC50” for “[GI50”, “Enzyme reaction” for “Growth”
The abbreviations in the table have the following meanings. • A: IC50 value<10 nmol/L • B: 10 nmol/L≤IC50 value<100 nmol/L • C: 100 nmol/L≤IC50 value

T1 sequence (Q02127 31-395): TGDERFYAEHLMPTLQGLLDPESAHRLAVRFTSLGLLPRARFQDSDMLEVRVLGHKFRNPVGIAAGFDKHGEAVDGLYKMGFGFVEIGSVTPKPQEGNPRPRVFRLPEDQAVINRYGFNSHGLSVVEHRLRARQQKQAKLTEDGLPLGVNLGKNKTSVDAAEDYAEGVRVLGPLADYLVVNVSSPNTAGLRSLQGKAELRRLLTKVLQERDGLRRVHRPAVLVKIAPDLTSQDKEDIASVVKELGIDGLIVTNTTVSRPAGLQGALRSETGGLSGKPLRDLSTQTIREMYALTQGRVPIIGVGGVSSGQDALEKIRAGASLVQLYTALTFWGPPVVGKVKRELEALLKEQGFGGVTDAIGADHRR

Row | SMILES | GI50 [1] | IC50 [2]
1 | O=C(O)c1nc(C2CC2)cnc1Nc1cccc(C2CCOCC2)c1CCC(F)F [Example 19-28] | < 100 nM | < 10 nM
2 | O=C(O)c1nc(C2CC2)cnc1Nc1cc(F)cc(C2CCOCC2)c1OC(F)F [Example 11, 6-cyclopropyl-3-((2-(difluoromethoxy)-5-fluoro-3-(tetrahydro-2H-pyran-4-yl)phenyl)amino)pyrazine-2-carboxylic acid] | < 100 nM | < 10 nM
3 | O=C(O)c1nc(C2CC2)cnc1Nc1cccc(C2=CCOCC2)c1COCC(F)(F)F [Example 19-10] | 100 to 1000 nM | 10 to 100 nM
4 | O=C(O)c1nc(C2CC2)cnc1Nc1cccc(C2=CCOCC2)c1OCC(F)F [Example 19-3] | 100 to 1000 nM | < 10 nM
5 | O=C(O)c1nc(C2CC2)cnc1Nc1cccc(C2=CCOCC2)c1CCCF [Example 19-27] | 100 to 1000 nM | 10 to 100 nM
6 | O=C(O)c1nc(C2CC2)cnc1Nc1cc(F)cc(C2=CCOCC2)c1OCC(F)(F)F [Example 5, 6-cyclopropyl-3-((3-(3,6-dihydro-2H-pyran-4-yl)-5-fluoro-2-(2,2,2-trifluoroethoxy)phenyl)amino) pyrazine-2-carboxylic acid] | < 100 nM | < 10 nM
7 | Cc1cnc(Nc2cccc(C3=CCOCC3)c2OCC(F)(F)F)c(C(=O)O)n1 [Example 19-33] | ≥ 1000 nM | 10 to 100 nM
8 | O=C(O)c1nc(C2CC2)cnc1Nc1cccc(C2CCOCC2)c1CCF [Example 19-19] | ≥ 1000 nM | 10 to 100 nM
9 | CCOc1ccc(Nc2ncc(C3CC3)nc2C(=O)O)c(OCC)c1C1=CCOCC1 [Example 19-23] | 100 to 1000 nM | 10 to 100 nM
10 | O=C(O)c1nc(C2CC2)cnc1Nc1cccc(C2CCOCC2)c1CC(F)(F)F [Example 19-18] | 100 to 1000 nM | 10 to 100 nM
11 | CCCc1c(Nc2ncc(C3CC3)nc2C(=O)O)cccc1C1=CCOCC1 [Example 19-16] | 100 to 1000 nM | 10 to 100 nM
12 | CCc1c(Nc2ncc(C3CC3)nc2C(=O)O)cccc1C1CCOCC1 [Example 12, 6-cyclopropyl-3-((2-ethyl-3-(tetrahydro-2H-pyran-4-yl)phenyl)amino)pyrazine-2-carboxylic acid] | < 100 nM | < 10 nM
13 | CC(C)c1cnc(Nc2cccc(C3=CCOCC3)c2OCC(F)(F)F)c(C(=O)O)n1 [Example 19-31] | 100 to 1000 nM | 10 to 100 nM
14 | Cc1c(Nc2ncc(C3CC3)nc2C(=O)O)cc(F)cc1C1=CCOCC1 [Example 19-4] | 100 to 1000 nM | 10 to 100 nM
15 | CCc1cnc(Nc2cccc(C3=CCOCC3)c2OCC(F)(F)F)c(C(=O)O)n1 [Example 19-32] | 100 to 1000 nM | 10 to 100 nM
16 | O=C(O)c1nc(C2CC2)cnc1Nc1cc(F)cc(C2CCOCC2)c1OCC(F)(F)F [Example 6, 6-cyclopropyl-3-((5-fluoro-3-(tetrahydro-2H-pyran-4-yl)-2-(2,2,2-trifluoroethoxy)phenyl)amino) pyrazine-2-carboxylic acid] | < 100 nM | < 10 nM
17 | O=C(O)c1nc(C2CC2)cnc1Nc1cccc(C2CCOCC2)c1C1CC1 [Example 19-12] | 100 to 1000 nM | < 10 nM
18 | CCOC(=O)c1nc(C2CC2)cnc1Nc1cccc(C2=CCOCC2)c1OCC(F)(F)F [Example 20, ethyl 6-cyclopropyl-3-((3-(3,6-dihydro-2H-pyran-4-yl)-2-(2,2,2-trifluoroethoxy)phenyl)amino)pyrazine-2-carboxylate] | 100 to 1000 nM | ≥ 100 nM
19 | O=C(O)c1nc(C2CC2)cnc1Nc1ccc(F)c(C2=CCOCC2)c1F [Example 19-26] | ≥ 1000 nM | 10 to 100 nM

Row | SMILES | GI50 [1] | IC50 [2]
20 | O=C(O)c1nc(C2CC2)cnc1Nc1cccc(C2=CCOCC2)c1OC(F)F [Example 14, 6-cyclopropyl-3-((2-(difluoromethoxy)-3-(3,6-dihydro-2H-pyran-4-yl)phenyl)amino)pyrazine-2-carboxylic acid] | 100 to 1000 nM | < 10 nM
21 | CC(C)c1c(Nc2ncc(C3CC3)nc2C(=O)O)cccc1C1CCOCC1 [Example 19-13] | 100 to 1000 nM | < 10 nM
22 | CC(C)OC(=O)c1nc(C2CC2)cnc1Nc1cccc(C2=CCOCC2)c1OCC(F)(F)F [Example 21, isopropyl 6-cyclopropyl-3-((3-(3,6-dihydro-2H-pyran-4-yl)-2-(2,2,2-trifluoroethoxy)phenyl)amino)pyrazine-2-carboxylate] | ≥ 1000 nM | ≥ 100 nM
23 | O=C(O)c1nc(C2CC2)cnc1Nc1cc(F)cc(C2=CCOCC2)c1OC(F)F [Example 19-1] | 100 to 1000 nM | < 10 nM
24 | O=C(O)c1nc(C2CC2)cnc1Nc1cccc(C2=CCOCC2)c1OCC(F)(F)C(F)(F)F [Example 19-7] | < 100 nM | < 10 nM
25 | O=C(O)c1nc(C2CC2)cnc1Nc1cccc(C2=CCOCC2)c1OCCC(F)(F)F [Example 19-8] | < 100 nM | < 10 nM
26 | CCOc1c(Nc2ncc(C3CC3)nc2C(=O)O)ccc(F)c1C1=CCOCC1 [Example 19-25] | 100 to 1000 nM | < 10 nM
27 | CCOc1c(Nc2ncc(C3CC3)nc2C(=O)O)cccc1C1=CCOCC1 [Example 19-21] | 100 to 1000 nM | 10 to 100 nM
28 | O=C(O)c1nc(C2CC2)cnc1Nc1cccc(C2=CCOCC2)c1F [Example 19-22] | ≥ 1000 nM | 10 to 100 nM
29 | O=C(O)c1nc(C2CC2)cnc1Nc1cccc(C2CCOCC2)c1CC(F)F [Example 19-29] | < 100 nM | 10 to 100 nM
30 | CC(Oc1c(Nc2ncc(C3CC3)nc2C(=O)O)cccc1C1=CCOCC1)C(F)(F)F (stereo not shown) [Example 19-6] | 100 to 1000 nM | 10 to 100 nM
31 | COc1c(Nc2ncc(C3CC3)nc2C(=O)O)cccc1C1=CCOCC1 [Example 19-20] | ≥ 1000 nM | 10 to 100 nM
32 | CC1=C(c2cccc(Nc3ncc(C4CC4)nc3C(=O)O)c2OCC(F)(F)F)CCOC1 [Example 19-14] | < 100 nM | < 10 nM
33 | CCCCc1c(Nc2ncc(C3CC3)nc2C(=O)O)cccc1C1CCOCC1 [Example 19-17] | 100 to 1000 nM | < 10 nM
34 | CCOc1c(C2=CCOCC2)cc(F)c(F)c1Nc1ncc(C2CC2)nc1C(=O)O [Example 19-2] | 100 to 1000 nM | 10 to 100 nM
35 | O=C(O)c1nc(C2CC2)cnc1Nc1cccc(C2CCOCC2)c1CCC(F)(F)F [Example 19-15] | < 100 nM | < 10 nM
36 | COC(=O)c1nc(C2CC2)cnc1Nc1cccc(C2=CCOCC2)c1OCC(F)(F)F [Example 1, methyl 6-cyclopropyl-3-((3-(3,6-dihydro-2H-pyran-4-yl)-2-(2,2,2-trifluoroethoxy)phenyl)amino)pyrazine-2-carboxylate] | 100 to 1000 nM | ≥ 100 nM
37 | CCOc1c(Nc2ncc(C3CC3)nc2C(=O)O)cc(F)cc1C1=CCOCC1 [Example 19-5] | 100 to 1000 nM | 10 to 100 nM
38 | CCOc1ccc(Nc2ncc(C3CC3)nc2C(=O)O)cc1C1=CCOCC1 [Example 19-24] | 100 to 1000 nM | 10 to 100 nM
